Assay results from patent US20150306094A1, “TRANS-4--N,N-DIMETHYLCARBAMOYL-CYCLOHEXYLAMINE FOR TREATING NEGATIVE SYMPTOMS OF SCHIZOPHRENIA” (RICHTER GEDEON NYRT., priority 2012, published 2015).
“Also recorded” adds a separate entry of the source.

Tested on: patients with schizophrenia
Test: international, multicenter, double-blind, placebo- and risperidone-controlled, fixed-dose clinical study
Assay type: in vivo, human
Conditions: for improvement on the PANSS factor score for negative symptoms, subpopulation with predominantly negative symptoms compared to ITT population: 6 week period, risperidone 4 mg/day, FIG. 1-4
Description: In the clinical study beside the ITT (intent to treat) population which included the total number of the patients, a subgroup was identified including patients with predominantly negative symptoms. This subgroup was identical with the patient subpopulation showing severe negative symptoms defined by Lenert et al. (Schizophrenia Research 71 (2004) 155-165). Patients showing severe negative symptoms were separated into two groups: State 4 and State 6 (definitions are described in Example). State 4 and State 6 together represent the patient subpopulation with predominantly negative symptoms.
The term “change from baseline” refers to the change of the value of the PANSS factor score for negative symptoms compared to the value registered before treatment started (at the baseline visit). The values were calculated using least squares method. The least squares mean (LSM) values resulted from the analysis of covariance (ANCOVA) model with treatment group and study center as factors and the baseline PANSS factor score of negative symptoms as the covariate.
PANSS factor score for negative symptoms: Sum of scores for items 1, 2, 3, 4, and 6 in negative subscale: blunted affect, emotional withdrawal, poor rapport, passive social withdrawal, lack of spontaneity; and items 7 and 16 in general psychopathology subscale: motor retardation, and active social avoidance. Higher scores indicate worsening.
A representative clinical study was conducted as an international, multicenter, double-bind, placebo- and risperidone-controlled, fixed-dose trial. The objective of the study was to evaluate the safety and efficacy of cariprazine fixed doses in patients with schizophrenia. A total of 732 patients were selected using criteria that includes patients who (i) currently meet or have met in the past the Diagnostic and Statistical Manual of Mental Disorders, Fourth Edition, Text Revision (DSM-IV-TR) criteria for schizophrenia (295.30 Paranoid Type, 295.10 Disorganized Type, 295.20 Catatonic Type, or 295.90 Undifferentiated Type) based on the Structured Clinical Interview for DSM-IV (SCID), (ii) have a PANSS total score ≧80 and ≦120, (iii) have a score ≧4 on Clinical Global Impression-Severity scale (iv) have a score ≧4 on at least 2 of the following 4 PANSS positive symptoms: delusions, hallucinatory behavior, conceptual disorganization, and suspiciousness/persecution.
During a 6 week period, 3 doses of cariprazine (1.5 mg/day, 3 mg/day, 4.5 mg/day) was compared to placebo and to an effective dose of risperidone (4.0 mg/day).
Beside the ITT (intent to treat) population which included the total number of the patients, a subgroup was identified including patients with predominantly negative symptoms. […]

Row | SMILES | improvement on the PANSS factor score for negative symptoms, subpopulation with predominantly negative symptoms compared to ITT population (cariprazine 1.5, 3, 4.5 mg/day) | effect on primary negative symptoms of schizophrenia (conclusion from the clinical study of the Example) | effect of extrapyramidal symptoms (EPS) on the change of PANSS factor score for negative symptoms (week 6, patients with predominantly negative symptoms vs subgroup without EPS, cariprazine 1.5, 3, 4.5 mg/day, FIG. 5)
1 | CN(C)C(=O)N[C@H]1CC[C@H](CCN2CCN(c3cccc(Cl)c3Cl)CC2)CC1 [cariprazine, trans-4-{2-[4-(2,3-dichlorophenyl)-piperazin-1-yl]-ethyl}-N,N-dimethylcarbamoyl-cyclohexylamine] | numerically higher improvement | can be treated effectively; also recorded: direct effect on negative symptoms | does not seem to be influenced by the treatment emergent EPS
2 | Cc1nc2n(c(=O)c1CCN1CCC(c3noc4cc(F)ccc34)CC1)CCCC2 [risperidone, reference compound] | no difference | – | –
